{"source": "patent US7262218B2", "about": "“Forms of pravastatin sodium” (Teva Gyogyszergyar Zartkoruen Mukodo Reszvenytarsasag, priority 1999, dated 2007)", "key": {"serum cholesterol levels": {"tested_on": "serum cholesterol levels", "conditions": "human subjects with normal hepatic function and moderate body weight; daily dosages of 10 mg or more; cited from earlier work"}, "[1]": {"assay": "Solid-form stability on exposure at 100% relative humidity (X-ray diffraction)", "format": "physicochemical", "conditions": "one week", "description": "The water uptake at 80% relative humidity after 1 week was up to about 15%. After exposure at 100% relative humidity, all the forms of pravastatin sodium transform to Form C with about […].\nPravastatin sodium was exposed at 100% relative humidity for one week."}, "[2]": {"assay": "Solid-form stability on storage at 40-80% relative humidity for two weeks (X-ray diffraction)", "format": "physicochemical", "conditions": "two weeks at relative humidity of between 40-80%", "protocol": "Pravastatin sodium Form G may be prepared by storing pravastatin sodium Form F for 2 weeks at a relative humidity of about 40 to about 80%. […] The resulting solid was analyzed by X-ray diffraction without further treatment."}, "[3]": {"assay": "Solid-form stability on drying under vacuum (X-ray diffraction)", "format": "physicochemical", "protocol": "Most of these forms have a jelly appearance. By drying these samples at 60° C., vacuum overnight, the powdered Form D is obtained.\nPravastatin sodium (7 g) was dissolved in deionized water (13 ml) and diluted with acetone (14.3 ml). The resulting solution was stirred over charcoal (0.07 g.) to decolorize. The charcoal was removed by filtration and rinsed with a 10:1 mixture of acetone:water (15.7 ml). The combined pravastatin sodium solution and rinsate was then diluted with acetone (42.8 ml) and cooled to −10° C. At the reduced temperature, more acetone (143 ml) was slowly added over one half hour. The solution was then maintained at −10° C. for three hours during which time pravastatin sodium crystallized. The crystals were then isolated by filtration, washed with 1% water in acetone that had been pre-cooled to −10° C. (28 ml) and then again with anhydrous acetone (28 ml). The crystals were then dried under vacuum at 50° C. […]\nPravastatin crystals were filtered and washed with 160 L acetone containing 2% water and cooled to between 2-5° C. Then the wet cake was washed once more with 160 L of pure acetone. The product was dried under vacuum by gradual heating to 60° C. The crystals were identified by X-ray diffraction as Form L. The water content was 16.8% and the acetone content was 0%. After prolonged drying the water content was reduced to 10.7%. A mixture of Form L and D was identified."}}}
{"smiles": "CC[C@H](C)C(=O)O[C@H]1C[C@H](O)C=C2C=C[C@H](C)C(CC[C@@H](O)C[C@@H](O)CC(=O)O)[C@H]21", "note": "(relative stereo) [Pravastatin sodium, [1S-[1α(β*,δ*)2α,6α,8β(R*),8aα]]-1,2,6,7,8,8a-hexahydro-β,δ,6-trihydroxy-2-methyl-8-(2-methyl-1-oxobutoxy)-1-naphthalene-heptanoic acid]", "values": [{"measurement": "effect on serum cholesterol levels", "setting": "serum cholesterol levels", "value": "reduction in serum cholesterol levels"}, {"measurement": "crystal form after exposure at 100% relative humidity", "setting": "[1]", "value": "found to be Form C"}]}
{"smiles": "CC[C@H](C)C(=O)O[C@H]1C[C@H](O)C=C2C=C[C@H](C)[C@H](CC[C@@H](O)C[C@@H](O)CC(=O)O)[C@H]21", "note": "[Form F, pravastatin sodium]", "values": [{"measurement": "crystal form after storage at humidity", "setting": "[2]", "value": "Form G is obtained"}]}
{"smiles": "CC[C@H](C)C(=O)O[C@H]1C[C@H](O)C=C2C=C[C@H](C)[C@H](CC[C@@H](O)C[C@@H](O)CC(=O)O)[C@H]21", "note": "[Form H, pravastatin sodium]", "values": [{"measurement": "crystal form after drying under vacuum overnight", "setting": "[3]", "value": "converted to Form D"}]}
{"smiles": "CC[C@H](C)C(=O)O[C@H]1C[C@H](O)C=C2C=C[C@H](C)[C@H](CC[C@@H](O)C[C@@H](O)CC(=O)O)[C@H]21", "note": "[Form I, pravastatin sodium]", "values": [{"measurement": "crystal form after drying under vacuum overnight", "setting": "[3]", "value": "transformed to Form D"}]}
{"smiles": "CC[C@H](C)C(=O)O[C@H]1C[C@H](O)C=C2C=C[C@H](C)[C@H](CC[C@@H](O)C[C@@H](O)CC(=O)O)[C@H]21", "note": "[Form J, pravastatin sodium]", "values": [{"measurement": "crystal form after drying under vacuum overnight", "setting": "[3]", "value": "transformed to Form D"}]}
{"smiles": "CC[C@H](C)C(=O)O[C@H]1C[C@H](O)C=C2C=C[C@H](C)C(CC[C@@H](O)C[C@@H](O)CC(=O)O)[C@H]21", "note": "(some centres unmarked) [Form L, pravastatin sodium]", "values": [{"measurement": "crystal form after drying under vacuum at 50° C.", "setting": "[3]; dried under vacuum at 50° C. (Example 6)", "value": "after drying the crystals were Form D"}, {"measurement": "crystal form after further drying under vacuum", "setting": "[3]; vacuum, gradual heating to 60° C., further drying to 2.5% water content (Example 23)", "value": "transformed to pure Form D"}]}
